In EP0375164B1, “Antiviral compounds” (THE WELLCOME FOUNDATION LIMITED, priority 1988, dated 1990):

What was measured:
Vero cells = assay: Cell toxicity in a cell growth inhibition assay (MTT uptake); assay type: cell-based; conditions: concentration for 50% inhibition of cell viability at 96 hours
Experimental: Cell toxicity is assessed in a cell growth inhibition assay. Subconfluent cultures of Vero cells grown on 96-well microtiter dishes are exposed to different dilutions of drug, and cell viability determined daily on replicate cultures using uptake of a tetrazolium dye (MTT). The concentration required for a 50% inhibition of cell vaibility at 96 hours is termed CCID₅₀.

[1] = Determination of oral bioavailability by urinary recovery after oral administration; assay type: in vivo; conditions: Long Evans Rats, gavage, 50 mg/kg; percent of dose excreted in urine over 48 hour collection as the parent compound 1-(β-D-arabinofuranosyl)-5-prop-1-ynyluracil
Experimental: Tests in rats were carried out on compounds of the invention to determine their bioavailability by measuring the urinary recovery after oral administration, as a percentage of the dose administered. High levels of the parent compound, 1-(β-D-arabinofuranosyl)-5-prop-1-ynyluracil, in the urine indicated good absorption from the gut.
Long Evans Rats were administered the compound of Example 1 or the parent compound by gavage at a dose of 50 mg/kg. The urine was collected for 24 and 48 hours post-dose, ultrafiltered, and analysed by reverse-phase high-pressure liquid chromatography. The oral bioavailability of the Example 1 compound and the parent compound was expressed as the percent of the dose excreted in the urine over the 48 hour period of collection, as 1-(β-D-arabinofuranosyl)-5-prop-1-ynyluracil, i.e. the parent compound.

| Compound | CCID₅₀(µM) at 96 hr (Vero cells) [µM] | Urinary Recovery (% of dose) [1] |
| --- | --- | --- |
| 5-Prop-1-ynyl-1-(5-0-trimethylacetyl-β-D-arabinofuranosyl)uracil [Example 1] | 477 | 64.89 % of dose |
| CC#Cc1cn([C@@H]2O[C@H](CO)[C@@H](O)[C@@H]2O)c(=O)[nH]c1=O [Parent Compound, 1-(β-D-arabinofuranosyl)-5-prop-1-ynyluracil, reference compound] |  | 9.70 % of dose |
